According to US20140147431A1, “Compositions and Methods for Modulating Desnutrin-Mediated Adipocyte Lipolysis” (The Regents of the University of California, priority 2010, published 2014):
Each block holds one compound with its values, some of them ahead of it.

Legend:
[1] = tested on: HEK 293 cells transfected with wild type desnutrin-HA-GFP; assay: Glycerol release (lipolysis) from oleate loaded HEK 293 cells transfected with wild type desnutrin-HA-GFP; assay type: cell-based; conditions: treated with AICAR vs without
Method: (§1) Gonadal fat pads or BAT from overnight fasted mice were cut into 50 mg samples and incubated at 37° C. without shaking in […] of Krebs-Ringer buffer (12 mM HEPES, 121 mM NaCl, 4.9 mM KCl, 1.2 mM MgSO4 and 0.33 mM CaCl2) containing 2% fatty acid free bovine serum albumin (BSA) and 0.1% glucose with or without 10 μM isoproterenol. Fatty acid (FA) and glycerol release were measured in aliquots from incubation buffer using the NEFA C Kit (Wako) and Free Glycerol Reagent (Sigma), respectively. […] Glycerol and fatty acid were determined using the kits described above.
(§2) The role of AMPK in lipolysis is controversial, with several reporting AMPK stimulates lipolysis and others showing it inhibits lipolysis, via phosphorylation of HSL at S563 (Daval et al., 2005; Koh et al., 2007; Lage et al., 2008; Yin et al., 2003). To determine the effect of AMPK specifically on desnutrin-mediated Lipolysis, oleate loaded HEK 293 cells, transfected with wild type desnutrin-HA-GFP, mutant S406A-desnutrin-HA-GFP or GFP control, were treated with the cell-permeable AMPK-activator, 5-amino-4-imidazolecarboxamide riboside (AICAR), and lipolysis was determined by measuring glycerol release. […] To test the effect of AMPK on lipolysis in vivo, AICAR was administered intraperitoneally to flox/flox and desnutrin-ASKO mice and then measured serum FA levels. […]

[2] = tested on: HEK 293 cells transfected with mutant S406A-desnutrin-HA-GFP; assay: Glycerol release (lipolysis) from oleate loaded HEK 293 cells transfected with mutant S406A-desnutrin-HA-GFP; assay type: cell-based; conditions: treated with AICAR vs without
Method: as §1, §2

AMPK = assay: Effect of AMPK activation on lipolysis in vivo: serum FA levels after intraperitoneal AICAR; parameters: species or system mice; conditions: five hours after injection
Method: Fasting serum triglycerides and FAs were analyzed with Infinity Triglyceride reagent (Thermo Trace) and NEFA C kit (Wako), respectively. Serum insulin, were determined using enzyme-linked immunosorbent assay kits (Alpco).
The role of AMPK in lipolysis is controversial, with several reporting AMPK stimulates lipolysis and others showing it inhibits lipolysis, via phosphorylation of HSL at S563 (Daval et al., 2005; Koh et al., 2007; Lage et al., 2008; Yin et al., 2003). To determine the effect of AMPK specifically on desnutrin-mediated Lipolysis, oleate loaded HEK 293 cells, transfected with wild type desnutrin-HA-GFP, mutant S406A-desnutrin-HA-GFP or GFP control, were treated with the cell-permeable AMPK-activator, 5-amino-4-imidazolecarboxamide riboside (AICAR), and lipolysis was determined by measuring glycerol release. […] To test the effect of AMPK on lipolysis in vivo, AICAR was administered intraperitoneally to flox/flox and desnutrin-ASKO mice and then measured serum FA levels. […] Therefore, AMPK phosphorylates desnutrin to increase lipolysis and promote FA oxidation in adipocytes.
FIGS. 3A-N. Desnutrin ablation converts BAT to WAT, and phosphorylation of desnutrin by AMPK increases lipolysis. […] I) FA oxidation, measured by ^14CO2 production from [U^14C] palmitate, from isolated brown adipocytes (left) and white adipocytes (right) from flox/flox and desnutrin-ASKO mice (n=4). […]

β3 adrenergic receptors = biological target: T1, β3 adrenergic receptors (Mus musculus, UniProt P25962); assay: Oxygen consumption (VO2) by indirect calorimetry after injection of β3-agonist; assay type: in vivo, mice; conditions: intraperitoneal injection 1 mg/kg body weight
T1 construct: endogenous in cells; host or cells: living flox/flox and desnutrin-ASKO mice (whole animal)
Method: Oxygen consumption (VO2) was measured using the Comprehensive Laboratory Animal Monitoring System (CLAMS; Columbus Instruments). Data were normalized to body weights. Body temperatures were assessed in 25 wk-old male mice using a RET-3 rectal probe for mice (Physitemp). […] was intraperitoneally injected into mice at 1 mg/kg body weight.
Oxygen consumption (VO2) was measured using the Comprehensive Laboratory Animal Monitoring System (CLAMS: Columbus Instruments). Data were normalized to body weights. Body temperatures were assessed using a RET-3 rectal probe for mice (Physitemp).
Since lipolysis and FAs are critical for thermogenesis, it was predicted that the severely blunted lipolysis in desnutrin-ASKO mice, would lead to impaired thermogenesis. Desnutrin-ASKO mice and flox/flox littermates were subjected to cold stress. […] To test this, a β3-agonist, […], was injected into desnutrin-ASKO and flox/flox mice and oxygen consumption was monitored.
FIGS. 2A-G. Decreased lipolysis in desnutrin-ASKO mice results in impaired thermogenesis and energy expenditure. […] F) Oxygen consumption rate (VO2) measured through indirect calorimetry. G) Oxygen consumption rate (VO2) measured through indirect calorimetry after intraperitoneal injection of CL316243. […]

[3] = biological target: wild type desnutrin-HA-GFP (murine) (UniProt Q8BJ56); assay: cell-based or functional assay
wild type desnutrin-HA-GFP (murine), sequence (Q8BJ56 whole entry): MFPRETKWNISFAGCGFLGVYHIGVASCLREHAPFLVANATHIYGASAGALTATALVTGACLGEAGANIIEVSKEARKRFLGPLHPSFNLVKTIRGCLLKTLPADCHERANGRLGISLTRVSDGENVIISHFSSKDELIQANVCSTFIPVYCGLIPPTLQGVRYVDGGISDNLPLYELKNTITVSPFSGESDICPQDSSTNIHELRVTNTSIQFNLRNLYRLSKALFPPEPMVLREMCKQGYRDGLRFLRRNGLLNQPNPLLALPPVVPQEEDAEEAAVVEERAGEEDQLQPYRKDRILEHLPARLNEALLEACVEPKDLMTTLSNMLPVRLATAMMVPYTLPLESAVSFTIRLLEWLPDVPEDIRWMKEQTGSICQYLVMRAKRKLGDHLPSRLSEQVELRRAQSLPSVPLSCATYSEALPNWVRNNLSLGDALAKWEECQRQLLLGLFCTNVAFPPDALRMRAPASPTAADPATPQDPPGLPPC

T1 sequence (P25962 whole entry): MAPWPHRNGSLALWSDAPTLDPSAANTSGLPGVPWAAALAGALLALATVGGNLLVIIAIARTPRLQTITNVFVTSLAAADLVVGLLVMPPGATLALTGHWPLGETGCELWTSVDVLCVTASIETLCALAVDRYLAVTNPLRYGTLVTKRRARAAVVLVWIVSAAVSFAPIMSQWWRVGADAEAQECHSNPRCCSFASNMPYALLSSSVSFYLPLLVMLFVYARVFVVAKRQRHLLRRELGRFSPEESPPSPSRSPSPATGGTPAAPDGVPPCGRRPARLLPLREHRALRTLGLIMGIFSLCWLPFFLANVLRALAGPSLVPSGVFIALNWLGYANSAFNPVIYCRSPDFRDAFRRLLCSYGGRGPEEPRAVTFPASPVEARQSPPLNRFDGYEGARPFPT

Compound: NC(=O)c1ncn([C@@H]2O[C@H](CO)[C@@H](O)[C@H]2O)c1N [AICAR, 5-amino-4-imidazolecarboxamide riboside]
- increase in glycerol release [1]: 1.8 fold
- increase in glycerol release [2]: failed to do so
- serum FA levels (AMPK; desnutrin-ASKO mice): serum FA levels were unchanged
- serum FA levels (AMPK; flox/flox mice): increased serum FA levels

Compound: C[C@H](Cc1ccc2c(c1)OC(C(=O)O)(C(=O)O)O2)NC[C@H](O)c1cccc(Cl)c1 [CL31624]
- oxygen consumption (β3 adrenergic receptors; desnutrin-ASKO mice): no change in oxygen consumption
- metabolic rate as indicated by oxygen consumption (β3 adrenergic receptors; flox/flox mice): drastic increase in their metabolic rate

- glycerol release from oleate loaded HEK 293 cells treated with AICAR [3]: 1.8 fold
Compound: AMPK of HEK 293 cells, activated by AICAR
